Measurements published in PubChem BioAssay (NCI).
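Growth conditions: 96-well plates. Treatment: test compound, 48 hours, 5 concentrations. Analysis: linear interpolation between bracketing concentrations; unreached endpoints set to highest concentration. Abbreviation: GI50, concentration required for 50% inhibition of growth. TGI marks complete inhibition of growth.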

How the values were obtained:
Test in all cases: DTP human tumour cell line panel, 48 h
[1] = tested on: A498 renal
[2] = tested on: BT-549 breast
[3] = tested on: HCT-116 colon
[4] = tested on: MALME-3M melanoma
[5] = tested on: MDA-MB-435
[6] = tested on: PC-3 prostate
[7] = tested on: SF-268 CNS
[8] = tested on: SF-539 CNS
[9] = tested on: HS 578T breast
[10] = tested on: SR leukemia

Row | SMILES | TGI [1] [µM] | TGI [2] [µM] | TGI [3] [µM] | TGI [4] [µM] | TGI [5] [µM] | TGI [6] [µM] | TGI [7] [µM] | TGI [8] [µM] | TGI [9] [µM] | TGI [10] [µM] | GI50 [1] [µM] | GI50 [3] [µM] | GI50 [9] [µM] | GI50 [4] [µM] | GI50 [5] [µM] | GI50 [6] [µM] | GI50 [7] [µM] | GI50 [8] [µM] | GI50 [10] [µM] | GI50 [2] [µM]
1 | COC(=O)c1c(C)ccc2c(O)c3c(cc12)C(=O)c1c2c(cc(O)c1C3=O)C1(C)OC(C)(O2)C(O)C(N(C)C)C1O (centres undefined) | 7.46 | 10.7 | 1.84 | 6.42 | 2.97 | 4.89 | 2.7 | 12.8 |  |  |  |  |  |  |  |  |  |  |  | 
2 | CC(C)=CC(C)C(C(O)CCC1(c2ccoc2)OCCO1)S(=O)(=O)c1ccccc1 (centres undefined) | > 100 | > 100 | > 100 | > 100 | > 100 | > 100 | > 100 | > 100 |  |  |  |  |  |  |  |  |  |  |  | 
3 | N#Cc1ccc(/C=N/NC(=O)CSCC(=O)N/N=C/c2ccc(C#N)cc2)cc1 | > 100 |  | > 100 | > 100 | > 100 | > 100 | > 100 | > 100 | > 100 | > 100 |  |  |  |  |  |  |  |  |  | 
4 | c1ccc2c(c1)CCN(C1=NCCO1)C2 | > 10 | > 10 | > 10 | > 10 | > 10 | > 10 | > 10 | > 10 | > 10 |  |  |  |  |  |  |  |  |  |  | 
5 | CN1c2ccccc2C(=O)NC12CCN(Cc1ccccc1)CC2 | > 100 |  | > 100 | > 100 | > 100 |  | > 100 | > 100 | > 100 | > 100 |  |  |  |  |  |  |  |  |  | 
6 | O=C1OC(C2Cc3ccccc3C2=O)c2ccccc21 (centres undefined) |  | > 100 | > 100 | > 100 | > 100 | > 100 | > 100 | > 100 | > 100 | > 100 |  |  |  |  |  |  |  |  |  | 
7 | Cc1ccc(S(=O)(=O)NC(=O)NC(Cc2ccccc2)C(=O)O)cc1 (centres undefined) |  | > 100 | > 100 | > 100 |  | > 100 | > 100 | > 100 | > 100 | > 100 |  |  |  |  |  |  |  |  |  | 
8 | COC(=O)C1=C(O)C(C(=O)OC)[C@]2(O)[C@H](C(=O)OC)[C@H]1C[C@@H](c1cccc(OC)c1)[C@H]2C(=O)OC (some centres undefined) | 55.9 | > 100 | 65.6 | > 100 | 55.2 |  | > 100 | > 100 | 55 | > 100 |  |  |  |  |  |  |  |  |  | 
9 | O=C(Nc1ccc(Cl)cc1)c1cccc([N+](=O)[O-])c1O | 7.32 |  | 20 | 9.97 |  |  | > 85 | > 74.1 |  | 31.5 |  |  |  |  |  |  |  |  |  | 
10 | CCC(C)NC(=S)N/N=C(\C)c1ccccn1 (centres undefined) | > 26 | > 100 | > 100 | > 28.3 | > 100 | > 100 | > 100 | 6.89 | > 100 |  |  |  |  |  |  |  |  |  |  | 
11 | O=C(Nc1ccc(-n2cc(-c3ccncc3)c(-c3ccc(O)c(Cl)c3)n2)cc1)c1cc(Cl)cc(Cl)c1 | > 32.5 |  | > 32.5 | > 32.5 | > 32.5 | > 32.5 | > 32.5 | > 32.5 | 6.52 | > 32.5 | > 32.5 | 1.57 | 0.939 | 2.66 | 1.87 | 1.96 | 3.85 | 1.01 | 1.36 | 
12 | O=C1c2n[nH]nc2C(=O)c2n[nH]nc21 | > 100 |  | > 100 |  | > 100 | > 100 | > 100 | > 100 | > 100 | > 100 |  |  |  |  |  |  |  |  |  | 
13 | C\C=C/C=C/C=C/C(=O)O | > 100 |  | > 100 | > 100 |  |  | > 100 | > 100 |  |  |  |  |  |  |  |  |  |  |  | 
14 | [N-]=[N+]=NC1=NNC2(C(=O)N1)c1ccccc1-c1ccccc12 | > 100 | > 100 | 27.4 | 33.3 | 33.1 | > 100 | > 100 | > 100 | > 100 |  |  |  |  |  |  |  |  |  |  | 
15 | CCSCC(=O)N1CCc2c([nH]c3ccccc23)C1=O |  | > 100 | > 100 | > 100 | > 100 | > 100 | > 100 | > 100 | > 100 | > 100 |  |  |  |  |  |  |  |  |  | 
16 | N#CCN1CCCCCc2ccccc21 |  |  | > 100 | > 100 | > 100 |  | > 100 | > 100 | > 100 | > 100 |  |  |  |  |  |  |  |  |  | 
17 | CC1(C)C2CCC1(C)C(N/C(=C(/C(Cl)=C(Cl)Cl)[N+](=O)[O-])n1nnc3ccccc31)C2 (centres undefined) | 37.5 | 48.5 | > 100 | 39.4 | 46.2 | 48.3 | 37.9 | > 100 | 43.6 |  |  |  |  |  |  |  |  |  |  | 
18 | O=C1c2cc([N+](=O)[O-])cnc2S(=O)(=O)N1c1ccc(Br)cc1 |  | > 100 | > 100 | > 100 | > 100 | > 100 | > 100 | > 100 | > 100 | > 100 |  |  |  |  |  |  |  |  |  | 
19 | CSc1nc2c(c(=O)n1C)N=C(c1ccc(Cl)cc1)CC(c1ccccc1)N2 (centres undefined) | > 100 | 56.1 | > 100 | 36.4 | > 100 | > 100 |  | 31.7 |  | > 100 |  |  |  |  |  |  |  |  |  | 
20 | O=c1c(/C=C/c2c(O)ccc3ccccc23)nnc2sc(-c3cccc([N+](=O)[O-])c3)nn12 |  | > 100 | 32.2 | 47.3 | > 100 | 46.5 | 89.8 |  | 56.1 | > 100 |  |  |  |  |  |  |  |  |  | 
21 | CCCN=C1Nc2ccccc2[C@@H]2N(C)c3ccccc3C(C)C[C@]12C (some centres undefined) | 28.6 |  | 30.4 | 32.5 | 34 | 40.8 | 54.6 | 30.5 | 41.9 |  |  |  |  |  |  |  |  |  |  | 
22 | CC(=O)Nc1ccc(N2C(=O)CS(=O)(=O)C2c2cccc(Oc3ccccc3)c2)cc1 (centres undefined) |  | 32 | 35.2 | 38.8 | 48.5 | 42.8 | 41.7 | 36.4 | 79.9 | 48.7 |  |  |  |  |  |  |  |  |  | 
23 | COc1cc(C(=O)O[C@H](C(=O)NCCNC(=O)[C@@H](OC(=O)c2cc(OC)cc3c(C)cccc23)[C@]2(C)CO2)[C@]2(C)CO2)c2cccc(C)c2c1 | 4.35 | 3.39 | 0.298 |  | 0.696 |  | 0.191 | 0.371 | > 100 |  | 2.21 | < 0.0285 | 0.319 |  |  | 0.109 | < 0.01 | < 0.0348 |  | 0.335
